Laboratory results reported in patent publication US12649750B2, “Macrocyclic compounds, compositions, and methods of using thereof” (Sionna Therapeutics Inc., priority 2022, dated 2026).

Legend:
NBD1 = target: T1, NBD1 (Homo sapiens, UniProt P13569); assay: Aggregation analysis using differential static light scattering (DSLS), thermal stability of NBD1 (ΔTagg); format: binding; conditions: ΔTagg versus DMSO control, NBD1 0.2 mg/ml
T1 construct: Purified recombinant NBD1 was produced using previously described methods; made in house
Procedure, shortened: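 Differential static light scattering read from 25° C. to 70° C. every 0.5° C., ramp 1° C./min, on recombinant NBD1 (0.2 mg/ml; Tris/NaCl/MgCl2 buffer with 2 mM ATP, 2 mM DTT, pH 7.6, 1% glycerol) plus compound. Reported ΔTagg subtracts averaged DMSO Tagg from inflection-point Tagg; categories A ≤5, B >5-10, C >10-25° C.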

CFTR = target: T2, CFTR (Homo sapiens, UniProt P13569, DEL508-508); assay: TECC24 AUC fold over DMSO @10 μM, CFTR-mediated transepithelial chloride transport in CF-HBE cells; format: cell-based; conditions: test agent AUC divided by DMSO vehicle AUC, primary CF-HBE cells, ΔF508 homozygous donor, 48 hours incubation
T2 construct: Primary human bronchial epithelial cells from a ΔF508 homozygous CF donor; host or cells: primary human bronchial epithelial cells (CF-HBE), ΔF508 homozygous donor
Procedure: Example 387. TECC24 AUC Fold Over DMSO @10 μM
The effects of a test agent on CFTR-mediated transepithelial chloride transport is measured using TECC24 recording analysis. Test agents are solubilized in DMSO. Solubilized test agents are mixed with incubation medium containing DMEM/F12, Ultroser G (2%; Crescent Chemical, catalog #67042), Hyclone Fetal Clone II (2%; GE Healthcare, catalog #SH30066.02), bovine brain extract (0.25%; Lonza, catalog #CC-4098), insulin (2.5 μg/mL), IL-13 (10 ng/mL), hydrocortisone (20 nM), transferrin (2.5 μg/mL), triiodothyronine (500 nM), ethanolamine (250 nM), epinephrine (1.5 μM), phosphoethanolamine (250 nM), and retinoic acid (10 nM). Primary human bronchial epithelial cells from a ΔF508 homozygous CF donor (CF-HBE cells; from University of North Carolina Cystic Fibrosis Tissue Procurement Center), grown on Transwell HTS 24-well cell culture inserts (Costar, catalog #3378), are exposed to test agents or controls dissolved in incubation medium. The CF-HBE cells are cultured at 36.5° C. for 48 hours before TECC24 recordings are performed in the presence or absence of test agent, a positive control or vehicle (DMSO).
Following incubation, the transwell cell culture inserts containing the test agent or control-treated CF-HBE cells are loaded onto a TECC24 apparatus (TECC v7 or MTECC v2; EP Design) to record the transepithelial voltage (VT) and resistance (TEER) using 4 AgCl electrodes per well configured in current-clamp mode. The apical and basolateral bath solutions both contain (in mM) 140 NaCl, 5 KCl, 2 CaCl2, 1 MgCl2, 10 Hepes, and 10 glucose (adjusted to pH 7.4 with NaOH). To inhibit basal Na+ absorption, the ENaC inhibitor benzamil (10 μM) is added to the bath. Then, the adenylate cyclase activator, forskolin (10 μM), is added to the bath to activate CFTR. The forskolin-stimulated Cl— transport is halted by addition of CFTR inhibitor-172 (20 μM) to the bath at the end of the experiment to confirm specificity. VT and TEER recordings are digitally acquired at routine intervals using TECC or MTECC software (EP Design). VT and TEER are transformed into equivalent transepithelial Cl— current (IEQ), and the Area Under the Curve (AUC) of the IEQ time course between forskolin and CFTR inhibitor-172 addition is generated using Excel (Microsoft). Efficacy is expressed as the ratio of the test agent AUC divided by vehicle AUC. EC50s based on AUC are generated using the non-linear regression log(agonist) vs. response function in Prism software (Graphpad) with HillSlope fixed=1.
If a test agent increases the AUC of the forskolin-stimulated IEQ relative to vehicle in CF-HBE cells, and this increase is inhibited by CFTR inhibitor-172, then the test agent is considered a CFTR corrector. TECC assay efficacy is expressed as the ratio of the test agent AUC divided by DMSO vehicle AUC. As set forth in Table 2 below, a TECC value less than 12 is marked “A”; a value between 12-20 is marked “B”; a value between 20 and 80 is marked “C”. […]

T2 sequence (P13569 with tags, fused parts or gaps DEL508-508): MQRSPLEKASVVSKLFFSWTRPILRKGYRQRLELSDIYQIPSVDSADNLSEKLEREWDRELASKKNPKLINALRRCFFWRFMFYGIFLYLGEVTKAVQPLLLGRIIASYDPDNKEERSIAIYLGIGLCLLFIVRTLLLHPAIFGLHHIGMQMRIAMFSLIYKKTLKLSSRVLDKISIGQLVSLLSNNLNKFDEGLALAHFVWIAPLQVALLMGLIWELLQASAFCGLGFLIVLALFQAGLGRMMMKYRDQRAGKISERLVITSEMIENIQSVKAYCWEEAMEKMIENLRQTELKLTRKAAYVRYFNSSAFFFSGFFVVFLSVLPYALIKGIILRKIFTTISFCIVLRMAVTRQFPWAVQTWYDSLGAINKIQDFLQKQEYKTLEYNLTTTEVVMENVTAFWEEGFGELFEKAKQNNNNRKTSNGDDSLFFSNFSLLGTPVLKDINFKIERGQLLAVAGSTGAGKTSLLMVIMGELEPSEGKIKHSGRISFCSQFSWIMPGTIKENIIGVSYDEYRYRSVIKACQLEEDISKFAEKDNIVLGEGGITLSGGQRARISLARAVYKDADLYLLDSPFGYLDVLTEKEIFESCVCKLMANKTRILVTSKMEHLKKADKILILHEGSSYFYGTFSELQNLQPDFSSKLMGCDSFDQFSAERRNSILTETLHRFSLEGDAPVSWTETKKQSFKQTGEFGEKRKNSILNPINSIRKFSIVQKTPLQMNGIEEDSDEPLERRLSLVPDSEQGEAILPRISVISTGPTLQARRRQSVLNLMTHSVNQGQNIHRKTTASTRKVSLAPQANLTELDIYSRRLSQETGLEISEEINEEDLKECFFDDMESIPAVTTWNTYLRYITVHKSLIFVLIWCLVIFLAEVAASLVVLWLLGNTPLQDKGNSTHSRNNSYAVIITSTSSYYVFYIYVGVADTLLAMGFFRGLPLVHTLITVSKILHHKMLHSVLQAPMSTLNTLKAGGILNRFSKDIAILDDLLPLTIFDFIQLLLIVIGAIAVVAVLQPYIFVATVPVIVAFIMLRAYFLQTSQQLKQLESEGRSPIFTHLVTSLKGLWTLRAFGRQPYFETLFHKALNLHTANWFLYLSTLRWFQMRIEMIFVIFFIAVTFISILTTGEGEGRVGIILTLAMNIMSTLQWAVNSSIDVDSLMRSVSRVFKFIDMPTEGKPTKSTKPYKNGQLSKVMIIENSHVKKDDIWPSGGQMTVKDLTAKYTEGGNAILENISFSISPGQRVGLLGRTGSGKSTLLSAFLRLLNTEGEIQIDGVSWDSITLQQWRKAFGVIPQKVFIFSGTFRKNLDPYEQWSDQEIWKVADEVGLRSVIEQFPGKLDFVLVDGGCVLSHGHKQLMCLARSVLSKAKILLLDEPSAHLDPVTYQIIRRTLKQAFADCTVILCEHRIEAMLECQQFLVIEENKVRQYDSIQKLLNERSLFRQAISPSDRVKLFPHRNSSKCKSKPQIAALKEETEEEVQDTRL
T1 sequence (P13569 423-646 limits assumed): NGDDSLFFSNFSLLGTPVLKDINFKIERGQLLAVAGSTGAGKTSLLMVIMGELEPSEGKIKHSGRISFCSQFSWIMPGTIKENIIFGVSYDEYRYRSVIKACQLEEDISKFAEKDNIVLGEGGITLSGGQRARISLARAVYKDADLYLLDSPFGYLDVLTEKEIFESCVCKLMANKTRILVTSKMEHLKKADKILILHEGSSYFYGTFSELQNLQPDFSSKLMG

Structure (SMILES) | DSLS 3D (100 μM ΔT) (NBD1) | TECC (AUC, 10 μM) (CFTR)
C[C@@H](Cc1cccc([C@@]2(C)CCCC(C)(C)CS(=O)(=O)CCc3c(c(F)cc4[nH]ccc34)Oc3ccnc(c3)-c3nc2nn3C)c1)C(=O)O (mixture of isomers) [Compound 201, (2S)-3-[3-[(6R)-22-Fluoro-3,6,10,10-tetramethyl-12,12-dioxo-24-oxa-12λ6-thia-3,4,19,28,30-pentazapentacyclo[23.3.1.12,5.015,23.016,20]triaconta-1(29),2(30),4,15,17,20,22,25,27-nonaen-6-yl]phenyl]-2-methyl-propanoic Acid] | C (a value greater than 10 °C and less than or equal to 25 °C is marked “C”) | B (a value between 12-20 is marked “B”)
CC(CC(=O)O)c1cccc([C@@]2(C)CCCC(C)(C)CS(=O)(=O)CCc3c(c(F)cc4[nH]ccc34)[S+]([O-])c3ccc(F)c(c3)-c3nc2nn3C)c1 (mixture of isomers) [Compound 217A, 3-[3-[(6R)-22,28-difluoro-3,6,10,10-tetramethyl-12,12,24-trioxo-12λ6,24λ4-dithia-3,4,19,30-tetrazapentacyclo[23.3.1.12,5.015,23.016,20]triaconta-1(29),2(30),4,15,17,20,22,25,27-nonaen-6-yl]phenyl]butanoic Acid] | B (a value above 5 °C and less than or equal to 10 °C is marked “B”) | A (a TECC value less than 12 is marked “A”)
CC(CC(=O)O)c1cccc([C@@]2(C)CCCC(C)(C)CS(=O)(=O)CCc3c(c(F)cc4[nH]ccc34)[S+]([O-])c3ccc(F)c(c3)-c3nc2nn3C)c1 (mixture of isomers) [Compound 217B, 3-[3-[(6R)-22,28-difluoro-3,6,10,10-tetramethyl-12,12,24-trioxo-12λ6,24λ4-dithia-3,4,19,30-tetrazapentacyclo[23.3.1.12,5.015,23.016,20]triaconta-1(29),2(30),4,15,17,20,22,25,27-nonaen-6-yl]phenyl]butanoic Acid] | C (a value greater than 10 °C and less than or equal to 25 °C is marked “C”) | C (a value between 20 and 80 is marked “C”)
CC(O)Cn1nc2nc1-c1cc(ccc1F)Oc1c(F)cc3[nH]ccc3c1CCS(=O)(=O)CC(C)(C)CCC[C@]2(C)c1cccc(C[C@@H](C)C(=O)O)c1 (mixture of isomers) [Compound 219, (2R)-3-[3-[(6R)-22,28-Difluoro-3-(2-hydroxypropyl)-6,10,10-trimethyl-12,12-dioxo-24-oxa-12λ6-thia-3,4,19,30-tetrazapentacyclo[23.3.1.12,5.015,23.016,20]triaconta-1(29),2(30),4,15,17,20,22,25,27-nonaen-6-yl]phenyl]-2-methyl-propanoic acid] | C (a value greater than 10 °C and less than or equal to 25 °C is marked “C”) | C (a value between 20 and 80 is marked “C”)
C[C@H](Cc1cccc(C2(C)CCCC(C)(C)CS(=O)(=O)CCc3c(c(F)cc4[nH]ccc34)Oc3ccc(F)c(c3)-c3ccn2n3)c1)C(=O)O (mixture of isomers) [Compound 230, (2R)-3-[3-(22,28-difluoro-6,10,10-trimethyl-12,12-dioxo-24-oxa-12λ6-thia-5,19,30-triazapentacyclo[23.3.1.12,5.015,23.016,20]triaconta-1(29),2(30),3,15,17,20,22,25,27-nonaen-6-yl)phenyl]-2-methyl-propanoic Acid] | C (a value greater than 10 °C and less than or equal to 25 °C is marked “C”) | C (a value between 20 and 80 is marked “C”)
C[C@@H](Cc1cccc([C@@]2(C)CCCC(C)(C)CS(=O)(=O)CCc3c(c(F)cc4[nH]ccc34)C(=O)c3ccnc(c3)-c3nc2nn3C)c1)C(=O)O (mixture of isomers) [Compound 254, (2S)-2-Methyl-3-[3-[rac-(6R)-22-fluoro-3,6,10,10-tetramethyl-12,12,24-trioxo-12λ6-thia-3,4,19,28,30-pentazapentacyclo[23.3.1.12,5.015,23.016,20]triaconta-1(29),2(30),4,15,17,20,22,25,27-nonaen-6-yl]phenyl]propanoic Acid] | C (a value greater than 10 °C and less than or equal to 25 °C is marked “C”) | B (a value between 12-20 is marked “B”)
CC1(C)CCCC(c2cccc(CCC(=O)O)c2)n2ncc(C#N)c2-c2cc(ccc2F)Oc2c(F)cc3[nH]ccc3c2CCS(=O)(=O)C1 (racemic) [Compound 22A, 3-[3-(3-cyano-23,29-difluoro-11,11-dimethyl-13,13-dioxo-25-oxa-13lambda6-thia-5,6,20-triazapentacyclo[24.3.1.02,6.016,24.017,21]triaconta-1(30),2,4,16,18,21,23,26,28-nonaen-7-yl)phenyl]propanoic acid] | A (an ΔTagg value less than or equal to 5 °C is marked “A”) | A (a TECC value less than 12 is marked “A”)
Cn1nc2nc1-c1cc(ccc1F)Oc1c(F)cc3[nH]ccc3c1CCS(=O)(=O)CC(C)(C)CCCC2(C)c1cccc(CCC(=O)O)c1 (racemic) [Compound 56, 3-[3-(22,28-Difluoro-3,6,10,10-tetramethyl-12,12-dioxo-24-oxa-12lambda6-thia-3,4,19,30-tetrazapentacyclo[23.3.1.12,5.015,23.016,20]triaconta-1(29),2(30),4,15,17,20,22,25,27-nonaen-6-yl)phenyl]propanoic acid] | C (a value greater than 10 °C and less than or equal to 25 °C is marked “C”) | A (a TECC value less than 12 is marked “A”)
Cc1cn2nc1-c1cc(ccc1F)Oc1c(F)cc3[nH]ccc3c1CCS(=O)(=O)CC(C)(C)CCCC2c1cccc(CCC(=O)O)c1 (racemic) [Compound 66, 3-[3-(22,28-Difluoro-3,10,10-trimethyl-12,12-dioxo-24-oxa-12λ6-thia-5,19,30-triazapentacyclo[23.3.1.12,5.015,23.016,20]triaconta-1(29),2(30),3,15,17,20,22,25,27-nonaen-6-yl)phenyl]propanoic Acid] | C (a value greater than 10 °C and less than or equal to 25 °C is marked “C”) | B (a value between 12-20 is marked “B”)
Cn1nc2nc1-c1cc(ccc1F)Oc1c(F)cc3[nH]ccc3c1CCS(=O)(=O)/C=C(\F)C(C)(C)CCC2(C)c1cccc(CCC(=O)O)c1 (racemic) [Compound 94, 3-[3-[(10Z)-10,22,28-Trifluoro-3,6,9,9-tetramethyl-12,12-dioxo-24-oxa-12lambda6-thia-3,4,19,30-tetrazapentacyclo-[23.3.1.12,5.015,23.016,20]triaconta-1(29),2(30),4,10,15,17,20,22,25,27-decaen-6-yl]phenyl]propanoic Acid] | A (an ΔTagg value less than or equal to 5 °C is marked “A”) | A (a TECC value less than 12 is marked “A”)
Cn1nc2nc1-c1cc(ccc1F)Cc1c(F)cc3[nH]ccc3c1CCS(=O)(=O)CC(C)(C)CCCC2(C)c1cccc(/C=C/C(=O)O)c1 (racemic) [Compound 167, (E)-3-[3-(22,28-Difluoro-3,6,10,10-tetramethyl-12,12-dioxo-12λ6-thia-3,4,19,30-tetrazapentacyclo[23.3.1.12,5.015,23.016,20]triaconta-1(29),2(30),4,15,17,20,22,25,27-nonaen-6-yl)phenyl]prop-2-enoic Acid] | C (a value greater than 10 °C and less than or equal to 25 °C is marked “C”) | A (a TECC value less than 12 is marked “A”)
